System: EpidermFT™ Skin Model (EFT-400) full thickness skin cultures
Experiment: Affymetrix GeneChip HG U133 Plus 2.0 microarray global gene expression, agent-exposed vs untreated skin cultures
Type: cell-based, human
Details: Salicin 0.5% vs Untreated Control, 24 hr treatment

## OCc1ccccc1O[C@@H]1O[C@H](CO)[C@@H](O)[C@H](O)[C@H]1O [Salicin, 2-(Hydroxymethyl)phenyl β-D-glucospyranoside]
  Direction UGCGL2 (218801_at): up
  Direction UST (205139_s_at): up
  Direction WIPI1 (203827_at): up
  Direction XPO1 (235927_at): up
  Direction ZFAND5 (217649_at): up
  Direction ZFP36L1 (211965_at): up
  Direction ZNF281 (228785_at): up
  Direction ZNF331 (219228_at): up
  Direction ZNF697 (227080_at): up
  Fold change ABHD2 (205566_at): 2.508
  Fold change ABHD2 (221815_at): 2.348
  Fold change ABHD2 (225337_at): 2.704
  Fold change ADAMTS5 (235368_at): 2.751
  Fold change ADAMTS6 (1570351_at): 2.37
  Fold change ADCYAP1 (230237_at): 2.573
  Fold change AHI1 (220841_s_at): 2.322
  Fold change AHI1 (221569_at): 2.667
  Fold change AKR1C1 (1562102_at): 2.331
  Fold change AKT3 (212607_at): 2.622
  Fold change AKT3 (212609_s_at): 2.3
  Fold change AKT3 (222880_at): 2.365
  Fold change AKT3 (224229_s_at): 2.751
  Fold change ALG9 (228817_at): 2.321
  Fold change ANKRD28 (213035_at): 2.361
  Fold change ANKRD28 (229307_at): 2.421
  Fold change ARMC8 (1555281_x_at): 2.299
  Fold change ARNT2 (202986_at): 2.361
  Fold change ATF3 (1554980_a_at): 2.623
  Fold change ATP2A3 (207522_s_at): 2.434
  Fold change BAG2 (209406_at): 2.774
  Fold change BCL2L11 (1558143_a_at): 2.347
  Fold change BNC2 (220272_at): 2.471
  Fold change BNC2 (235723_at): 2.707
  Fold change C1GALT1C1 (238989_at): 2.327
  Fold change C1orf67 /// DNAH14 (242283_at): 2.614
  Fold change C13orf33 (227058_at): 2.621
  Fold change CABLES1 (225532_at): 2.633
  Fold change CARD16 (1552701_a_at): 2.363
  Fold change CCR1 (205098_at): 2.474
  Fold change CDCP1 (1554110_at): 2.44
  Fold change CDR2 (209501_at): 2.488
  Fold change CHST2 (203921_at): 2.332
  Fold change CLGN (205830_at): 2.486
  Fold change CNOT3 (203239_s_at): 2.466
  Fold change CPM (241765_at): 2.574
  Fold change CPM (243403_x_at): 2.436
  Fold change CREM (207630_s_at): 2.309
  Fold change CUL4B (202213_s_at): 2.538
  Fold change CXCL1 (204470_at): 2.363
  Fold change CYP7B1 (207386_at): 2.782
  Fold change CYR61 (210764_s_at): 2.692
  Fold change DENND3 (212975_at): 2.471
  Fold change DENND5B (228551_at): 2.474
  Fold change DGKI (206806_at): 2.74
  Fold change DNAJB9 (202842_s_at): 2.613
  Fold change DNAJB9 (1554462_a_at): 2.666
  Fold change DNAJC10 (221781_s_at): 2.508
  Fold change DNAJC10 (221782_at): 2.553
  Fold change DOCK4 (205003_at): 2.383
  Fold change DOCK5 (230206_at): 2.653
  Fold change DOCK5 (230263_s_at): 2.362
  Fold change DOK6 (236290_at): 2.316
  Fold change DSEL (232825_s_at): 2.821
  Fold change DUSP4 (204015_s_at): 2.668
  Fold change DZIP1 (204557_s_at): 2.653
  Fold change EIF2AK3 (218696_at): 2.305
  Fold change ELL2 (214446_at): 2.557
  Fold change ELTD1 (219134_at): 2.637
  Fold change ENPP1 (205066_s_at): 2.414
  Fold change ENTPD7 (220153_at): 2.395
  Fold change EPS8 (202609_at): 2.334
  Fold change EREG (205767_at): 2.487
  Fold change ERO1LB (220012_at): 2.376
  Fold change FADS1 (208963_x_at): 2.411
  Fold change FADS1 (208964_s_at): 2.638
  Fold change FAM20A (226804_at): 2.437
  Fold change FAM107B (223058_at): 2.544
  Fold change FAM107B (223059_s_at): 2.476
  Fold change FAR2 (220615_s_at): 2.497
  Fold change FAT4 (219427_at): 2.428
  Fold change FEM1B (212374_at): 2.726
  Fold change FGF7 (1555103_s_at): 2.35
  Fold change FGF7 /// KGFLP1 /// KGFLP2 (1554741_s_at): 2.506
  Fold change FHOD3 (218980_at): 2.607
  Fold change FKBP11 (219117_s_at): 2.431
  Fold change FKBP11 (219118_at): 2.422
  Fold change FMN2 (1555471_a_at): 2.355
  Fold change FN1 (214701_s_at): 2.436
  Fold change FN1 (214702_at): 2.71
  Fold change FOXJ3 (217310_s_at): 2.327
  Fold change FPR1 (205119_s_at): 2.402
  Fold change GAS1 (204457_s_at): 2.783
  Fold change GCLM (203925_at): 2.646
  Fold change GCLM (236140_at): 2.667
  Fold change GEM (204472_at): 2.52
  Fold change GFPT1 (226886_at): 2.512
  Fold change GFPT2 (205100_at): 2.3
  Fold change GLIPR1 (204222_s_at): 2.366
  Fold change GRAMD1A (224807_at): 2.363
  Fold change GRAMD1B (212906_at): 2.401
  Fold change GUCY1A3 (221942_s_at): 2.594
  Fold change GUCY1A3 (229530_at): 2.498
  Fold change HERC3 (1554290_at): 2.372
  Fold change HEY1 (44783_s_at): 2.372
  Fold change HIST1H2AB /// HIST1H2AE (214469_at): 2.52
  Fold change HIST1H2AD /// HIST1H3A /// HIST1H3B /// HIST1H3C /// HIST1H3D /// HIST1H3E /// HIST1H3F /// HIST1H3G /// HIST1H3H /// HIST1H3I /// HIST1H3J (214472_at): 2.608
  Fold change HIST2H2AA3 /// HIST2H2AA4 (214290_s_at): 2.42
  Fold change HK2 (222305_at): 2.329
  Fold change HOXB2 (205453_at): 2.404
  Fold change HSD17B2 (204818_at): 2.766
  Fold change HSPA13 (202557_at): 2.665
  Fold change ID2 /// ID2B (213931_at): 2.802
  Fold change IGFBP5 (211958_at): 2.712

— patent publication US20120034613A1, “Apparatus and Method for Testing Relationships Between Gene Expression and Physical Appearance of Skin” (NSE Products, Inc., priority 2010, published 2012)
